Data taken from US9334290B2, “Substituted tetrahydrocarbazole and carbazole carboxamide compounds” (Bristol-Myers Squibb Company, priority 2013, dated 2016).
pIC50: −log10 of the molar value. Read-outs that look alike come from different tables or passages of the source.

Tests used:
[1] = test system: CD69 expression on B cells in human whole blood; assay: Whole blood assay of BCR-stimulated CD69 expression on B cells; assay type: cell-based
Jak2 tyrosine kinase = Jak2 tyrosine kinase (Homo sapiens (Human), UniProt O60674); assay: Jak2 tyrosine kinase assay; assay type: biochemical
human recombinant Btk = human recombinant Btk (Homo sapiens (Human), UniProt Q06187); assay: Human Recombinant Btk enzyme assay; assay type: biochemical; settings: read-out: Btk IC50 value
[2] = BCR-stimulated, read-out: CD69 IC50 values
[3] = Homo sapiens, B-cell, BCR-stimulated, read-out: CD69 IC50 values

Jak2 tyrosine kinase, sequence (O60674 whole entry): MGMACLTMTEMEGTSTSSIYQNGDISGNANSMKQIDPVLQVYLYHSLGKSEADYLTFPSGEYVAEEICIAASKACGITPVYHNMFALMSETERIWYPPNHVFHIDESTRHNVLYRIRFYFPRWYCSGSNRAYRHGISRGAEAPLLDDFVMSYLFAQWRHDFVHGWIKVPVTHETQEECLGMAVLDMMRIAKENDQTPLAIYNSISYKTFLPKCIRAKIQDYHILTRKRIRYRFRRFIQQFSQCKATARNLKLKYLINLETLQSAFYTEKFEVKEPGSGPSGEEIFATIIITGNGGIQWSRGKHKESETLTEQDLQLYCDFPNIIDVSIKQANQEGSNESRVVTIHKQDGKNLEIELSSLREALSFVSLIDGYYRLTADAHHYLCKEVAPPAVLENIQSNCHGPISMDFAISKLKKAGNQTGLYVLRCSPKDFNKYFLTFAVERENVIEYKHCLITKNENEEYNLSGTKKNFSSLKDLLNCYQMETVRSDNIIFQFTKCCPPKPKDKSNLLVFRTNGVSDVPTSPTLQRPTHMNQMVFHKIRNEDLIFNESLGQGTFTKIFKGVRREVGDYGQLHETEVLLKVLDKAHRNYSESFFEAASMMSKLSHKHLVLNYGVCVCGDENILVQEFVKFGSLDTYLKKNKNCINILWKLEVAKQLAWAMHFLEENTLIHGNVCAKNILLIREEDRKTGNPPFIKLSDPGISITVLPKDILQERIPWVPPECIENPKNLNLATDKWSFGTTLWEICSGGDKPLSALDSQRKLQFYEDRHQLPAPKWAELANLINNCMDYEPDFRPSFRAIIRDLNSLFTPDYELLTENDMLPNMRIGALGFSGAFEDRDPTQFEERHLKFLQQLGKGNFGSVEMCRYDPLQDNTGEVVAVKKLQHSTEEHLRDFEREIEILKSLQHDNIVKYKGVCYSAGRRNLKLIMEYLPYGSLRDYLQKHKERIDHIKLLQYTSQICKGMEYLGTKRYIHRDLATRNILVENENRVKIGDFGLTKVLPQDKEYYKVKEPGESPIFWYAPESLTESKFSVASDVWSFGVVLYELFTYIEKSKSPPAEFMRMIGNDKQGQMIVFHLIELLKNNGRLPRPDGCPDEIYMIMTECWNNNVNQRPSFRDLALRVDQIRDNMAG
human recombinant Btk, sequence (Q06187 whole entry): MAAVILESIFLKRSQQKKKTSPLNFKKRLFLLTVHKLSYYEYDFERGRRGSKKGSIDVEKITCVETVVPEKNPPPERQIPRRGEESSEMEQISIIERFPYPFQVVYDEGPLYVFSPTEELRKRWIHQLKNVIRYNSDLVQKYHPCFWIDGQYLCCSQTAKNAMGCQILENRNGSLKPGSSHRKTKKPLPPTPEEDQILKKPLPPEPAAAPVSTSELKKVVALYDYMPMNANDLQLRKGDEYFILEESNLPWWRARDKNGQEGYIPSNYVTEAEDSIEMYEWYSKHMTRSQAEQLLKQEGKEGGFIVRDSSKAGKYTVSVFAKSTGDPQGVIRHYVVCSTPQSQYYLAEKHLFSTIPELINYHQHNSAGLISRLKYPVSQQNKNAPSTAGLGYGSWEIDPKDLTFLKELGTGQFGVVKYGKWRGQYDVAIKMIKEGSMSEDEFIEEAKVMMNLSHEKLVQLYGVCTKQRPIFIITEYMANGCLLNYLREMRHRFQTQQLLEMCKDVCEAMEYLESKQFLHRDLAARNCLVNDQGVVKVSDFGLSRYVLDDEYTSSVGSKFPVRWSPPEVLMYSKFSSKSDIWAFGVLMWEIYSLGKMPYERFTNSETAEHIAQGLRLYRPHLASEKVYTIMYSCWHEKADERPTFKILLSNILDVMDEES

Cc1c(-c2c(Cl)cc(C(N)=O)c3[nH]c4c(c23)CC[C@H](C(C)(C)O)C4)cccc1-n1c(=O)c2cccc(F)c2n(C)c1=O (atropisomer, axis not shown) [Example 26, 6-Chloro-5-(R)-(3-(S)-(8-fluoro-1-methyl-2,4-dioxo-1,2-dihydroquinazolin-3(4H)-yl)-2-methylphenyl)-2-(S)-(2-hydroxypropan-2-yl)-2,3,4,9-tetrahydro-1H-carbazole-8-carboxamide]
pIC50 [1, 2]: 6.80
pIC50 (Jak2 tyrosine kinase): 5.12

Cc1c(-c2c(Cl)cc(C(N)=O)c3[nH]c4cc(C(C)(C)O)ccc4c23)cccc1-n1c(=O)ccn(-c2ccc(F)cc2)c1=O [Example 24, 3-Chloro-4-(R)-(3-(3-(4-fluorophenyl)-2,6-dioxo-2,3-dihydropyrimidin-1(6H)-yl)-2-methylphenyl)-7-(2-hydroxypropan-2-yl)-9H-carbazole-1-carboxamide]
pIC50 [1, 2]: 7.68

Cc1c(-c2c(Cl)cc(C(N)=O)c3[nH]c4cc(C(C)(C)O)ccc4c23)cccc1-n1c(=O)c2cccc(F)c2n(C)c1=O (atropisomer, axis not shown) [Example 11, 3-Chloro-4-(R)-(3-(S)-(8-fluoro-1-methyl(d3)-2,4-dioxo-1,2-dihydroquinazolin-3(4H)-yl)-2-methylphenyl)-7-(2-hydroxypropan-2-yl)-9H-carbazole-1-carboxamide]
pIC50 [1, 2]: 7.19
pIC50 (Jak2 tyrosine kinase): 6.04

Cn1c(=O)n(-c2cccc(-c3c(F)cc(C(N)=O)c4[nH]c5cc(C(C)(C)O)ccc5c34)c2Cl)c(=O)c2cccc(F)c21 [Example 61]
pIC50 [1, 2]: 7.03

Cc1c(-c2ccc(C(N)=O)c3[nH]c4cc(C(C)(C)O)ccc4c23)cccc1-n1cnc2ccccc2c1=O [Comparative Example 75, 7-(2-Hydroxypropan-2-yl)-4-(2-methyl-3-(4-oxoquinazolin-3(4H)-yl)phenyl)-9H-carbazole-1-carboxamide, reference compound]
pIC50 ([1]; Homo sapiens, B-cell, 18 h, anti-IgM + IL-4 stimulation, 18 h, read-out: CD69 IC50): 6.19

Cc1c(-c2c(Cl)cc(C(N)=O)c3[nH]c4cc(C(C)(C)O)ccc4c23)cccc1-n1c(=O)c2cccc(F)c2n(C)c1=O (single isomer, unassigned) [Example 2]
pIC50 [1, 2]: 7.05

Cc1c(-c2c(F)cc(C(N)=O)c3[nH]c4cc(C(C)(C)O)ccc4c23)cccc1-n1c(=O)[nH]c2c(F)cccc2c1=O [Example 21, 3-Fluoro-4-(R)-(3-(R)-(8-fluoro-2,4-dioxo-1,2-dihydroquinazolin-3(4H)-yl)-2-methylphenyl)-7-(2-hydroxypropan-2-yl)-9H-carbazole-1-carboxamide]
pIC50 [1, 2]: 7.77

Cn1c(=O)n(-c2cccc(-c3c(Cl)cc(C(N)=O)c4[nH]c5cc(C(C)(C)O)ccc5c34)c2Cl)c(=O)c2ccccc21 [Example 43, 3-Chloro-4-(R)-(2-chloro-3-(1-methyl-2,4-dioxo-1,2-dihydroquinazolin-3(4H)-yl)phenyl)-7-(2-hydroxypropan-2-yl)-9H-carbazole-1-carboxamide]
pIC50 [1, 2]: 7.15

Cc1c(-c2c(Cl)cc(C(N)=O)c3[nH]c4cc(C(C)(C)O)ccc4c23)cccc1-n1c(=O)cc2c(Cl)cccn2c1=O [Example 33, 3-Chloro-4-(R)-(3-(S)-(5-chloro-1,3-dioxo-1H-pyrido[1,2-c]pyrimidin-2(3H)-yl)-2-methylphenyl)-7-(2-hydroxypropan-2-yl)-9H-carbazole-1-carboxamide]
pIC50 [1, 2]: 7.62

Cc1c(-c2c(Cl)cc(C(N)=O)c3[nH]c4cc(C(C)(C)O)ccc4c23)cccc1-n1c(=O)cc2c(Cl)cccn2c1=O [Example 32, 3-Chloro-4-(R)-(3-(R)-(5-chloro-1,3-dioxo-1H-pyrido[1,2-c]pyrimidin-2(3H)-yl)-2-methylphenyl)-7-(2-hydroxypropan-2-yl)-9H-carbazole-1-carboxamide]
pIC50 [1, 2]: 6.80

Cc1c(-c2c(F)cc(C(N)=O)c3[nH]c4c(c23)CC[C@H](C(C)(C)O)C4)cccc1-n1c(=O)[nH]c2c(Cl)cccc2c1=O (single isomer, unassigned) [Example 63]
pIC50 (Jak2 tyrosine kinase): 4.96
Ratio of Jak2/Btk IC50 values (Jak2 tyrosine kinase; selectivity of Btk over Jak2): 24000
pIC50 (human recombinant Btk): 9.35

Cc1c(-c2c(F)cc(C(N)=O)c3[nH]c4cc(C(C)(C)O)ccc4c23)cccc1-n1c(=O)[nH]c2c(F)cccc2c1=O [Example 20, 3-Fluoro-4-(3-(8-fluoro-2,4-dioxo-1,2-dihydroquinazolin-3(4H)-yl)-2-methylphenyl)-7-(2-hydroxypropan-2-yl)-9H-carbazole-1-carboxamide]
pIC50 [1, 2]: 7.80

Cc1c(-c2c(F)cc(C(N)=O)c3[nH]c4c(c23)CC[C@H](C(C)(C)O)C4)cccc1-n1c(=O)[nH]c2c(F)cccc2c1=O (single isomer, unassigned) [Example 59]
pIC50 (human recombinant Btk): 9.05

Cc1c(-c2c(Cl)cc(C(N)=O)c3[nH]c4c(c23)CC[C@H](C(C)(C)O)C4)cccc1-n1c(=O)c2cccc(F)c2n(C)c1=O [Example 25, 6-Chloro-5-(3-(8-fluoro-1-methyl-2,4-dioxo-1,2-dihydroquinazolin-3(4H)-yl)-2-methylphenyl)-2-(S)-(2-hydroxypropan-2-yl)-2,3,4,9-tetrahydro-1H-carbazole-8-carboxamide]
pIC50 (Jak2 tyrosine kinase): < 5.70

Cc1c(-c2c(F)cc(C(N)=O)c3[nH]c4c(c23)CC[C@H](C(C)(C)O)C4)cccc1-n1c(=O)cc2c(Cl)cccn2c1=O (single isomer, unassigned) [Example 65]
pIC50 [1, 2]: 6.96
pIC50 (Jak2 tyrosine kinase): < 5.70

Cc1c(-c2c(F)cc(C(N)=O)c3[nH]c4cc(C(C)(C)O)ccc4c23)cccc1-n1c(=O)[nH]c2c(Cl)cccc2c1=O [Example 53]
pIC50 [1, 3]: 6.96

Cc1c(-c2c(F)cc(C(N)=O)c3[nH]c4cc(C(C)(C)O)ccc4c23)cccc1-n1c(=O)[nH]c2c(F)cc(F)cc2c1=O [Example 50]
pIC50 [1, 2]: 6.92

Cc1c(-c2c(Cl)cc(C(N)=O)c3[nH]c4c(c23)CC[C@H](C(C)(C)O)C4)cccc1-n1c(=O)[nH]c2c(F)cccc2c1=O (single isomer, unassigned) [Example 56]
pIC50 [1, 2]: 6.85
pIC50 (Jak2 tyrosine kinase): < 5.70

Cc1c(-c2c(F)cc(C(N)=O)c3[nH]c4c(c23)CC[C@H](C(C)(C)O)C4)cccc1-n1c(=O)cc2c(Cl)cccn2c1=O (single isomer, unassigned) [Example 64]
pIC50 (Jak2 tyrosine kinase): < 5.70

Cn1c(=O)n(-c2cccc(-c3c(Cl)cc(C(N)=O)c4[nH]c5cc(C(C)(C)O)ccc5c34)c2Cl)c(=O)c2cccc(F)c21 [Example 44, 3-Chloro-4-(2-chloro-3-(8-fluoro-1-methyl-2,4-dioxo-1,2-dihydroquinazolin-3(4H)-yl)phenyl)-7-(2-hydroxypropan-2-yl)-9H-carbazole-1-carboxamide]
pIC50 [1, 2]: 6.80

Cc1c(-c2c(F)cc(C(N)=O)c3[nH]c4cc(C(C)(C)O)ccc4c23)cccc1-n1c(=O)c2cccc(F)c2n(C)c1=O (atropisomer, axis not shown) [Example 18, 3-Fluoro-4-(3-(S)-(8-fluoro-1-methyl-2,4-dioxo-1,2-dihydroquinazolin-3(4H)-yl)-2-methylphenyl)-7-(2-hydroxypropan-2-yl)-9H-carbazole-1-carboxamide]
pIC50 [1, 2]: 7.25

Cc1c(-c2c(Cl)cc(C(N)=O)c3[nH]c4cc(C(C)(C)O)ccc4c23)cccc1-n1c(=O)ccn(-c2ccc(F)cc2)c1=O [Example 23, 3-Chloro-4-(3-(3-(4-fluorophenyl)-2,6-dioxo-2,3-dihydropyrimidin-1(6H)-yl)-2-methylphenyl)-7-(2-hydroxypropan-2-yl)-9H-carbazole-1-carboxamide]
pIC50 [1, 2]: 7.01

[2H]C([2H])([2H])n1c(=O)n(-c2cccc(-c3c(F)cc(C(N)=O)c4[nH]c5cc(C(C)(C)O)ccc5c34)c2C)c(=O)c2cccc(F)c21 [Example 52]
pIC50 (Jak2 tyrosine kinase): 5.96

[2H]C([2H])([2H])n1c(=O)n(-c2cccc(-c3c(Cl)cc(C(N)=O)c4[nH]c5cc(C(C)(C)O)ccc5c34)c2C)c(=O)c2cccc(F)c21 (single isomer, unassigned) [Example 12]
pIC50 [1, 3]: 6.72
pIC50 (Jak2 tyrosine kinase): 5.72

Cc1c(-c2c(Cl)cc(C(N)=O)c3[nH]c4c(c23)CC[C@H](C(C)(C)O)C4)cccc1-n1c(=O)[nH]c2c(F)cccc2c1=O (single isomer, unassigned) [Example 55]
pIC50 [1, 2]: 7.36
pIC50 (Jak2 tyrosine kinase): 5.05

Cn1c(=O)n(-c2cccc(-c3c(Cl)cc(C(N)=O)c4[nH]c5cc(C(C)(C)O)ccc5c34)c2Cl)c(=O)c2ccccc21 [Example 42, 3-Chloro-4-(2-chloro-3-(1-methyl-2,4-dioxo-1,2-dihydroquinazolin-3(4H)-yl)phenyl)-7-(2-hydroxypropan-2-yl)-9H-carbazole-1-carboxamide]
pIC50 [1, 2]: 6.68

Cc1c(-c2c(F)cc(C(N)=O)c3[nH]c4c(c23)CC[C@@H](C(C)(C)O)C4)cccc1-n1c(=O)[nH]c2c(F)cccc2c1=O (single isomer, unassigned) [Example 67]
pIC50 (human recombinant Btk): 9.31

Cc1c(-c2c(F)cc(C(N)=O)c3[nH]c4cc(C(C)(C)O)ccc4c23)cccc1-n1c(=O)[nH]c2c(F)cccc2c1=O [Example 22, 3-Fluoro-4-(R)-(3-(S)-(8-fluoro-2,4-dioxo-1,2-dihydroquinazolin-3(4H)-yl)-2-methylphenyl)-7-(2-hydroxypropan-2-yl)-9H-carbazole-1-carboxamide]
pIC50 [1, 2]: 6.92

Cn1c(=O)n(-c2cccc(-c3c(Cl)cc(C(N)=O)c4[nH]c5cc(C(C)(C)O)ccc5c34)c2Cl)c(=O)c2cccc(F)c21 [Example 45, 3-Chloro-4-(R)-(2-chloro-3-(8-fluoro-1-methyl-2,4-dioxo-1,2-dihydroquinazolin-3(4H)-yl)phenyl)-7-(2-hydroxypropan-2-yl)-9H-carbazole-1-carboxamide]
pIC50 [1, 2]: 7.17

Cc1c(-c2c(F)cc(C(N)=O)c3[nH]c4cc(C(C)(C)O)ccc4c23)cccc1-n1c(=O)c2cccc(F)c2n(C)c1=O [Example 17, 3-Fluoro-4-(3-(8-fluoro-1-methyl-2,4-dioxo-1,2-dihydroquinazolin-3(4H)-yl)-2-methylphenyl)-7-(2-hydroxypropan-2-yl)-9H-carbazole-1-carboxamide]
pIC50 [1, 2]: 6.92

Cc1c(-c2c(Cl)cc(C(N)=O)c3[nH]c4cc(C(C)(C)O)ccc4c23)cccc1-n1c(=O)c2cccc(F)c2n(C)c1=O (single isomer, unassigned) [Example 1]
pIC50 [1, 2]: 6.72
